In data set [1] the test system is Stage III-V gametocytes (blood stage P. falciparum parasites). The experiment in a line: In vitro drug activity on gametocytes (AlamarBlue viability assay). The class given is cell-based, Plasmodium falciparum. The note with it: read-out: Gametocyte EC50. The essentials: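 Viability was measured by AlamarBlue fluorescence (Ex 525/Em 598 nm) after 24 h dye incubation following 72 h compound exposure at 37° C, 5% CO2. Gametocytes, stage III–V from strains 3D7, HB3 and Dd2, were NAG/Percoll-enriched and plated at 20,000 cells/well.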

Data set [2] has as its system Asexual parasites of P. falciparum strain 3D7. Nature of the data set: In vitro drug activity on asexual parasites (SYBR Green assay). The format is cell-based, Plasmodium falciparum. The essentials: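 SYBR Green I fluorescence (ex 490, em 520 nm) was read after freeze-thaw lysis and 30 min staining at room temperature. Before that, drug-treated cultures (0.5% parasitemia, 2% hematocrit, DMSO ≤0.5%) were incubated 72 h, in duplicate.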

A further data set has as its target mTOR (Homo sapiens, UniProt P42345). Nature of the data set: mTOR activity (no method described). The format is biochemical.
Data set [3] is described as follows: Microsomal stability (rat). The note with it: rat microsomes. The format is in vitro ADME.
Another data set is described as follows: Solubility at pH 7.4. The format is physicochemical.
A further data set in a line: PAMPA permeability. The format is in vitro ADME. On the technique in general: In PAMPA a lipid-coated filter parts donor from acceptor wells.

As to `Cn1c(=O)n(-c2cccc(C#N)c2)c2c3cc(-c4ccc(Cl)c(O)c4)ccc3ncc21` [Compound 441], the EC50 (commonly the concentration giving half of the maximal effect) in data set [1] was 686 nM; in data set [2] it was 319 nM. The compound further gave a mTOR on mTOR of 516.2 nM. Further, in data set [3], the “Microsomal Stability (rat) T1/2” value is listed as above 30.0 min. Moreover, in the data set “Solubility at pH 7.4”, the “Sol @ pH 7.4” value was below 1.0 ug/mL. In “PAMPA permeability”, the PAMPA Permeability was below 1 ×10⁻⁶ cm/s.

For the compound `CC(O)c1ccc(-c2ccc3ncc4c(c3c2)n(-c2cccc(C#N)c2)c(=O)n4C)cc1` (stereo not drawn) [Compound 443], the values for the EC50 in data set [1] and in data set [2] were 68.3 nM and 44.5 nM, respectively. Also, the mTOR on mTOR is reported as 302.4 nM. Moreover, the “Microsomal Stability (rat) T1/2” value in data set [3] is above 30.0 min. For the same compound, the “Sol @ pH 7.4” value in the data set “Solubility at pH 7.4” is 3.3 ug/mL. This compound returned a PAMPA Permeability in the data set “PAMPA permeability” of 645 ×10⁻⁶ cm/s.

As to `Cn1c(=O)n(-c2cccc(C#N)c2)c2c3cc(-c4cccc(O)c4)ccc3ncc21` [Compound 444], the EC50 in data set [1] turned out to be 280 nM; in data set [2], 106 nM. Further, on mTOR, the mTOR worked out at 427.8 nM. The “Microsomal Stability (rat) T1/2” value in data set [3] was 12.8 min. For the same compound, in the data set “Solubility at pH 7.4”, the “Sol @ pH 7.4” value is below 1.0 ug/mL. For the same compound, in the data set “PAMPA permeability”, the PAMPA Permeability was determined as 407 ×10⁻⁶ cm/s.

The record behind these values is patent US11753408B2, “Compounds and method for blocking transmission of malarial parasite” (The United States of America, as represented by the …, priority 2016, dated 2023).
